This note sets out measurements from patent publication US10815246B2, “Thailanstatin analogs” (priority 2017, dated 2020).

pIC50: −log10 of the molar value. Where two headings read alike, the source gives them in different places.

Type in all cases: cell-based
One experiment deals with HCT 116 cells. In words: In vitro cytotoxicity, CellTiter-Glo, 72 h (Example 11). How it is done:
Alternatively, the in vitro cytotoxicity of the compounds of the invention may be measured as described in this example. 180 μl of HCT 116 cells (ATCC, Cat # CCL-247) in McCoy's 5a Medium Modified (Sigma-Aldrich®, St. Louis, Mo.)+10% fetal bovine serum were seeded at a density of 5,000 cells/well in a white opaque 96-well plate and incubated for 24 hours at […] in a 5% CO2 incubator. Twenty-four hours post cell seeding, 20 μl of 100× test compounds were diluted such that the final concentrations of the test compounds were in μM concentration. Half log dilutions were used, starting from 10 μM through 0.0001 μM. Puromycin and […]. The cells were incubated with the compounds for 72 hours at […] in a 5% CO2 incubator. After 72 hrs, 100 μl/well of CellTiter-Glo® Luminescent Cell Viability Assay reagent (Promega, Inc., Madison, Wis.; Cat. # G7573) was added to the plates and incubated at room temperature for 30 minutes. The luminescence signals were captured using EnVision 2105 Multimode Plate Reader (PerkinElmer, Waltham, Mass.). The data were analyzed using non-linear regression curve fit (sigmoidal dose response) in GraphPad Prism software (GraphPad Software, La Jolla, Calif.) by plotting the concentration of drug on the X-axis and the mean % inhibition values on the Y-axis.
(ATP-based viability assays read luminescence as a measure of living cells.)

The subject of the next experiment is PANC 10.05. The experiment can be described thus: In vitro cytotoxicity on pancreatic cancer cell line (Example 12). The note with it: PANC 10.05 human pancreatic cancer cell line.
Another experiment relates to PANC 05.04. The experiment is described as above. The conditions noted are these: PANC 05.04 human pancreatic cancer cell line.
The subject of the next experiment is A431. The experiment can be described thus: In vitro cytotoxicity of toxin compounds, CellTiter-Glo, three days (Example 12). The note with it: Homo sapiens, A-431, 72 h. How it is done: (§1) Various cancer cell lines were obtained from the American Type Culture Collection (ATCC®). The cells were cultured in a humidified 5% CO2 incubator in a media consisting of RPMI 1640, L-glutamine, and 10% FBS. The cells were passaged as needed using standard tissue culture techniques. The cells were harvested and plated out into 96-well tissue culture treated plates at a density of 5000 cells per well. After allowing the cells to equilibrate for ˜24 hr in a humidified 5% CO2 incubator, the cells were treated with the test compounds at the indicated concentrations. The cells were exposed to the test compounds for three days with no media change. After the treatment period, CellTiter-Glo® Luminescent Cell Viability Assay reagent solution (Promega, Inc., Madison, Wis.; Cat. # G7573) was introduced to each well. The Cell TiterGlo-containing plates were then read on a SpectroMax® iD3 Multi-Mode Microplate reader (Molecular Devices, LLC, San Jose, Calif.). The degree of luminescence was dictated by the abundance of live cells.
(§2) The following tables summarize the cytotoxicity (IC50), nM, observed for the specified toxin compounds on the indicated cancer cell lines, NCI-H23, DU145, SW480, SKOV3, A549, HT29, SK-MES-1, SKBR3, HCT116, MCF7, N87, and A431 (ATCC designations).

A further experiment concerns A549. The description is as above. The conditions noted are these: Homo sapiens, 72 h. How it is done: as §1, §2
The subject of a further experiment is DU145. The experiment is described as above. The conditions noted are these: Homo sapiens, DU-145, 72 h. How it is done: as §1, §2
The subject of a further experiment is HCT116. Described as above. The note with it: Homo sapiens, HCT-116, 72 h. How it is done: as §1, §2
The next experiment has as its system HT29. Described as above. The note with it: Homo sapiens, HT-29, 72 h. How it is done:
as §1, §2

In the next experiment the test system is MCF7. Described as above. The note with it: Homo sapiens, 72 h. How it is done:
as §1, §2

For a further experiment, the system named is N87. The experiment is described as above. The note with it: 72 h. How it is done:
as §1, §2

A further experiment has as its system NCI-H23. The experiment is described as above. The conditions noted are these: Homo sapiens, 72 h. How it is done: as §1, §2
The next experiment has as its system SK-MES-1. The description is as above. The note with it: Homo sapiens, 72 h; SK-MES-1, three days. How it is done:
as §1, §2

The test system of another experiment is SKBR3. The experiment is described as above. The conditions noted are these: Homo sapiens, SK-BR-3, 72 h. How it is done: as §1, §2
For the next experiment, the system named is SKOV3. The experiment is described as above. The conditions noted are these: Homo sapiens, SK-OV-3, 72 h. How it is done: as §1, §2
A further experiment has as its system SW480. The experiment is described as above. The note with it: Homo sapiens, 72 h. How it is done: as §1, §2
The test system of a further experiment is HEL-92.1.7. In words: In vitro cytotoxicity of toxin compounds (Example 12, Table 4). The conditions noted are these: Homo sapiens. How it is done:
as §1
(§3) Table 4 gives the cytotoxicity data for Compounds 2, 4, and 6 on the indicated cancer cell lines, HL60, KG-1, NCI-H69, SK-MEL-1, HEL-92.1.7, and K562 (ATCC designations).

The next experiment relates to HL60. Described as above. The conditions noted are these: Homo sapiens, HL-60. How it is done:
as §1, §3

The next experiment relates to K562. The experiment is described as above. The conditions noted are these: Homo sapiens. How it is done:
as §1, §3

The subject of a further experiment is NCI-H69. Described as above. The note with it: Homo sapiens. How it is done:
as §1, §3

The test system of another experiment is SK-MEL-1. The experiment is described as above. The note with it: Homo sapiens. How it is done: as §1, §3

As to `COC(=O)C[C@@H]1C[C@@]2(CO2)[C@H](O)[C@@H](/C=C/C(C)=C/C[C@@H]2O[C@H](C)[C@H](NC(=O)/C=C\C(C)OC(=O)c3ccccc3)C[C@@H]2C)O1` (stereo partly drawn) [Compound 1, (Z)-5-((2R, 3R, 5S, 6S)-6-((2E, 4E)-5-((3R, 4R, 5R, 7S)-4-hydroxy-7-(2-methoxy-2-oxoethyl)-1,6-dioxaspiro[2.5]octan-5-yl)-3-methylpenta-2,4-dienyl)-2,5-dimethyltetrahydro-2H-pyran-3-ylamino)-5-oxopent-3-en-2-yl benzoate], the negative logarithm of the IC50 (pIC50) (usually the IC50 on a negative log10 scale, so that one unit is a factor of ten) in the experiment on HCT 116 cells (Homo sapiens, HCT-116, 72 h) is 7.72; in the experiment on PANC 10.05 (Panc1005), 7.19; with PANC 05.04 it was 7.66.
As to `COC(=O)C[C@@H]1C[C@@]2(CO2)[C@H](O)[C@@H](/C=C/C(C)=C/C[C@@H]2O[C@H](C)[C@H](NC(=O)/C=C\C(C)OC(=O)c3ccc(F)cc3)C[C@@H]2C)O1` (stereo partly drawn) [Compound 2, (Z)-5-((2R, 3R, 5S, 6S)-6-((2E, 4E)-5-((3R, 4R, 5R, 7S)-4-hydroxy-7-(2-methoxy-2-oxoethyl)-1,6-dioxaspiro[2.5]octan-5-yl)-3-methylpenta-2,4-dienyl)-2,5-dimethyltetrahydro-2H-pyran-3-ylamino)-5-oxopent-3-en-2-yl 4-fluorobenzoate], the pIC50 was 8.15 in the experiment with HCT 116 cells (Homo sapiens, HCT-116, 72 h); 8.04 in the experiment on A431; 7.42 in the experiment on A549; 7.56 with DU145; 8.05 in the experiment on HCT116; 7.65 in the experiment with HT29. In addition, the negative-log IC50 (pIC50) in the experiment on MCF7 was 7.49; in the experiment with N87, 7.83; with NCI-H23 it was 8.89; in the experiment with SK-MES-1, 6.95; in the experiment on SKBR3, 6.78; with SKOV3, 7.24. For the same compound, the pIC50 is 7.69 with SW480; 7.68 in the experiment on PANC 10.05 (Panc1005); 8.70 in the experiment on PANC 05.04; 9.15 in the experiment with HEL-92.1.7; 10.10 in the experiment with HL60; 9.24 with K562. The pIC50 is 9.02 in the experiment with NCI-H69 and 8.49 in the experiment with SK-MEL-1.
For `COC(=O)C[C@@H]1C[C@@]2(CO2)[C@H](O)[C@@H](/C=C/C(C)=C/C[C@@H]2O[C@H](C)[C@H](NC(=O)/C=C\C(C)n3nc(C)nc3C)C[C@@H]2C)O1` (stereo partly drawn) [Compound 3, Methyl 2-((3R, 5S, 7R, 8R)-7-((1E, 3E)-5-((2S, 3S, 5R, 6R)-5-((Z)-4-(3,5-dimethyl-1H-1,2,4-triazol-1-yl)pent-2-enamido)-3,6-dimethyltetrahydro-2H-pyran-2-yl)-3-methylpenta-1,3-dienyl)-8-hydroxy-1,6-dioxaspiro[2.5]octan-5-yl)acetate], the pIC50 was 6.41 in the experiment with HCT 116 cells (Homo sapiens, HCT-116, 72 h); under 5.70 with PANC 10.05 (Panc1005); 6.36 in the experiment on PANC 05.04.
Take `COC(=O)C[C@@H]1C[C@@]2(CO2)[C@H](O)[C@@H](/C=C/C(C)=C/C[C@@H]2O[C@H](C)[C@H](NC(=O)/C=C\C(C)c3ccon3)C[C@@H]2C)O1` (stereo partly drawn) [Compound 4, Methyl 2-((3R, 5S, 7R, 8R)-8-hydroxy-7-((1E, 3E)-5-((2S,3S,5R,6R)-5-((Z)-4-(isoxazol-3-yl)pent-2-enamido)-3,6-dimethyltetrahydro-2H-pyran-2-yl)-3-methylpenta-1,3-dien-1-yl)-1,6-dioxaspiro[2.5]octan-5-yl)acetate]: the negative-log IC50 (pIC50) was 6.48 with HCT 116 cells (Homo sapiens, HCT-116, 72 h); 9.15 with A431; 8.55 in the experiment on A549; 8.72 in the experiment on DU145; 9.00 with HCT116; 8.89 with HT29. The pIC50 in the experiment with MCF7 is 8.68; with N87 it was 8.80; in the experiment on NCI-H23, 9.70; in the experiment with SK-MES-1, 8.12; in the experiment on SKBR3, 8.02; with SKOV3, 8.17. Further, the pIC50 in the experiment with SW480 is 8.66; in the experiment on PANC 10.05 (Panc1005) it was 8.14; in the experiment on PANC 05.04 it was 8.40; with HL60, 10.30; in the experiment with K562 it was 9.96; in the experiment on NCI-H69, 9.20. Further, the negative logarithm of the IC50 (pIC50) in the experiment on SK-MEL-1 was 9.38.
On to `COC(=O)C[C@@H]1C[C@@]2(CO2)[C@H](O)[C@@H](/C=C/C(C)=C/C[C@@H]2O[C@H](C)[C@H](NC(=O)/C=C\C(C)c3cc(OC)no3)C[C@@H]2C)O1` (stereo partly drawn) [Compound 5, Methyl 2-((3R, 5S, 7R, 8R)-8-hydroxy-7-((1E, 3E)-5-((2S, 3S, 5R, 6R)-5-((Z)-4-(3-methoxyisoxazol-5-yl)pent-2-enamido)-3,6-dimethyltetrahydro-2H-pyran-2-yl)-3-methylpenta-1,3-dienyl)-1,6-dioxaspiro[2.5]octan-5-yl)acetate], for which the pIC50 in the experiment with HCT 116 cells (HCT 116 cells, 72 hours, read-out: IC50) was 6.51; with PANC 10.05, 7.70; in the experiment on PANC 05.04, 7.92.
For `COC(=O)C[C@@H]1C[C@@]2(CO2)[C@H](O)[C@@H](/C=C/C(C)=C/C[C@@H]2O[C@H](C)[C@H](NC(=O)/C=C\C(C)c3noc(C)n3)C[C@@H]2C)O1` (stereo partly drawn) [Compound 6, Methyl 2-((3R, 5S, 7R, 8R)-7-((1E, 3E)-5-((2S, 3S, 5R, 6R)-3,6-dimethyl-5-((Z)-4-(5-methyl-1,2,4-oxadiazol-3-yl)pent-2-enamido)tetrahydro-2H-pyran-2-yl)-3-methylpenta-1,3-dienyl)-8-hydroxy-1,6-dioxaspiro[2.5]octan-5-yl)acetate], the pIC50 with HCT 116 cells (Homo sapiens, HCT-116, 72 h) is 7.70; in the experiment on A431, 8.74; in the experiment with A549, 8.32; in the experiment on DU145, 8.48; in the experiment on HCT116, 8.70; in the experiment with HT29 it was 8.57. Further, the negative logarithm of the IC50 (pIC50) in the experiment with MCF7 is 8.42; in the experiment on N87, 8.85; in the experiment on NCI-H23, 9.40; in the experiment on SK-MES-1 it was 8.03; in the experiment with SKBR3 it was 7.91; in the experiment with SKOV3 it was 8.01. For the same compound, the pIC50 with SW480 is 8.57; in the experiment on PANC 10.05 (Panc1005), 7.99; in the experiment with PANC 05.04, 8.15; in the experiment on HEL-92.1.7 it was 10.52; in the experiment on HL60 it was 10.40; with K562, 10.05. Also, the results for the pIC50 with NCI-H69 and with SK-MEL-1 were 9.68 and 9.11, respectively.
For the compound `COC(=O)C[C@@H]1C[C@@]2(CO2)[C@H](O)[C@@H](/C=C/C(C)=C/C[C@@H]2O[C@H](C)[C@H](NC(=O)/C=C\C(C)COC3(C)COC3)C[C@@H]2C)O1` (stereo partly drawn) [Compound 7, Methyl 2-((3R, 5S, 7R, 8R)-7-((1E, 3E)-5-((2S, 3S, 5R, 6R)-3,6-dimethyl-5-((Z)-4-methyl-5-((3-methyloxetan-3-yl)oxy)pent-2-enamido)tetrahydro-2H-pyran-2-yl)-3-methylpenta-1,3-dien-1-yl)-8-hydroxy-1,6-dioxaspiro[2.5]octan-5-yl)acetate], the negative logarithm of the IC50 (pIC50) in the experiment with HCT 116 cells (Homo sapiens, HCT-116, 72 h) was 6.52; with PANC 10.05 (Panc1005), 7.01; with PANC 05.04, 7.66.
As to `COc1ccc(C[C@H](N)C(=O)N[C@H]2[C@@H](O)[C@H](n3cnc4c(N(C)C)ncnc43)O[C@@H]2CO)cc1` [Puromycin, reference compound], in the experiment with HCT 116 cells (Homo sapiens, HCT 116 cells, 72 hours, read-out: IC50), the pIC50 is about 6.60.
